Source: PubChem BioAssay AID1259407 (Chemical Carcinogenesis Research Information System (CCRIS), 2018)
Calls of active or inactive are those of the source. How the calls were made is not given here.

System: CCRIS mutagenicity, Ames/micronucleus/aberration tests
Assay: CCRIS mutagenicity studies
[1] = Test System: AMES SALMONELLA TYPHIMURIUM, Strain/Indicator: TA98, Metabolic Activation: NONE, Method: STANDARD PLATE
[2] = Test System: AMES SALMONELLA TYPHIMURIUM, Strain/Indicator: TA98, Metabolic Activation: RAT, LIVER, S-9, AROCLOR 1254, Method: STANDARD PLATE
[3] = Test System: AMES SALMONELLA TYPHIMURIUM, Strain/Indicator: TA100, Metabolic Activation: NONE, Method: STANDARD PLATE
[4] = Test System: AMES SALMONELLA TYPHIMURIUM, Strain/Indicator: TA100, Metabolic Activation: RAT, LIVER, S-9, AROCLOR 1254, Method: STANDARD PLATE
[5] = Test System: AMES SALMONELLA TYPHIMURIUM, Strain/Indicator: TA1535, Metabolic Activation: NONE, Method: STANDARD PLATE
[6] = Test System: AMES SALMONELLA TYPHIMURIUM, Strain/Indicator: TA1535, Metabolic Activation: RAT, LIVER, S-9, AROCLOR 1254, Method: STANDARD PLATE
[7] = Test System: AMES SALMONELLA TYPHIMURIUM, Strain/Indicator: TA1537, Metabolic Activation: NONE, Method: STANDARD PLATE
[8] = Test System: AMES SALMONELLA TYPHIMURIUM, Strain/Indicator: TA1537, Metabolic Activation: RAT, LIVER, S-9, AROCLOR 1254, Method: STANDARD PLATE
[9] = Test System: AMES SALMONELLA TYPHIMURIUM, Strain/Indicator: TA1538, Metabolic Activation: NONE, Method: STANDARD PLATE
[10] = Test System: AMES SALMONELLA TYPHIMURIUM, Strain/Indicator: TA1538, Metabolic Activation: RAT, LIVER, S-9, AROCLOR 1254, Method: STANDARD PLATE

Measured: mutagenic call

CC=C(C)C#N
inactive: Test System: AMES SALMONELLA TYPHIMURIUM, Strain/Indicator: TA97, Metabolic Activation: HAMSTER, LIVER, S-9, AROCLOR 1254 (10 OR 30%), Method: PREINCUBATION inactive; negative | Test System: AMES SALMONELLA TYPHIMURIUM, Strain/Indicator: TA97, Metabolic Activation: HAMSTER, LIVER, S-9, AROCLOR 1254 (30%), Method: PREINCUBATION inactive; negative | Test System: AMES SALMONELLA TYPHIMURIUM, Strain/Indicator: TA97, Metabolic Activation: NONE, Method: PREINCUBATION inactive; negative | Test System: AMES SALMONELLA TYPHIMURIUM, Strain/Indicator: TA97, Metabolic Activation: RAT, LIVER, S-9, AROCLOR 1254 (10%), Method: PREINCUBATION inactive; negative | Test System: AMES SALMONELLA TYPHIMURIUM, Strain/Indicator: TA98, Metabolic Activation: HAMSTER, LIVER, S-9, AROCLOR 1254 (10%), Method: PREINCUBATION inactive; negative | Test System: AMES SALMONELLA TYPHIMURIUM, Strain/Indicator: TA98, Metabolic Activation: HAMSTER, LIVER, S-9, AROCLOR 1254 (30%), Method: PREINCUBATION inactive; negative | Test System: AMES SALMONELLA TYPHIMURIUM, Strain/Indicator: TA98, Metabolic Activation: NONE, Method: PREINCUBATION inactive; negative | Test System: AMES SALMONELLA TYPHIMURIUM, Strain/Indicator: TA98, Metabolic Activation: RAT, LIVER, S-9, AROCLOR 1254 (10%), Method: PREINCUBATION inactive; negative | Test System: AMES SALMONELLA TYPHIMURIUM, Strain/Indicator: TA98, Metabolic Activation: RAT, LIVER, S-9, AROCLOR 1254 (30%), Method: PREINCUBATION inactive; negative | Test System: AMES SALMONELLA TYPHIMURIUM, Strain/Indicator: TA100, Metabolic Activation: HAMSTER, LIVER, S-9, AROCLOR 1254 (10%), Method: PREINCUBATION inactive; negative | Test System: AMES SALMONELLA TYPHIMURIUM, Strain/Indicator: TA100, Metabolic Activation: HAMSTER, LIVER, S-9, AROCLOR 1254 (30%), Method: PREINCUBATION inactive; negative | Test System: AMES SALMONELLA TYPHIMURIUM, Strain/Indicator: TA100, Metabolic Activation: NONE, Method: PREINCUBATION inactive; negative | Test System: AMES SALMONELLA TYPHIMURIUM, Strain/Indicator: TA100, Metabolic Activation: RAT, LIVER, S-9, AROCLOR 1254 (10%), Method: PREINCUBATION inactive; negative | Test System: AMES SALMONELLA TYPHIMURIUM, Strain/Indicator: TA100, Metabolic Activation: RAT, LIVER, S-9, AROCLOR 1254 (30%), Method: PREINCUBATION inactive; negative | Test System: AMES SALMONELLA TYPHIMURIUM, Strain/Indicator: TA1535, Metabolic Activation: HAMSTER, LIVER, S-9, AROCLOR 1254 (10 OR 30%), Method: PREINCUBATION inactive; negative | Test System: AMES SALMONELLA TYPHIMURIUM, Strain/Indicator: TA1535, Metabolic Activation: NONE, Method: PREINCUBATION inactive; negative | Test System: AMES SALMONELLA TYPHIMURIUM, Strain/Indicator: TA1535, Metabolic Activation: RAT, LIVER, S-9, AROCLOR 1254 (10%), Method: PREINCUBATION inactive; negative | Test System: AMES SALMONELLA TYPHIMURIUM, Strain/Indicator: TA1537, Metabolic Activation: HAMSTER, LIVER, S-9, AROCLOR 1254 (30%), Method: PREINCUBATION inactive; negative | Test System: AMES SALMONELLA TYPHIMURIUM, Strain/Indicator: TA1537, Metabolic Activation: NONE, Method: PREINCUBATION inactive; negative | Test System: AMES SALMONELLA TYPHIMURIUM, Strain/Indicator: TA1537, Metabolic Activation: RAT, LIVER, S-9, AROCLOR 1254 (30%), Method: PREINCUBATION inactive; negative

C=C1CC[C@H]2C[C@@H]1C2(C)C
inactive: Test System: AMES SALMONELLA TYPHIMURIUM, Strain/Indicator: TA98, Metabolic Activation: HAMSTER, LIVER, S-9, AROCLOR 1254 (2.5-20%), Method: PREINCUBATION inactive; negative | Test System: AMES SALMONELLA TYPHIMURIUM, Strain/Indicator: TA98, Metabolic Activation: HAMSTER, LIVER, S-9, AROCLOR 1254, Method: STANDARD PLATE inactive; negative | [1] inactive; negative | [2] inactive; negative | Test System: AMES SALMONELLA TYPHIMURIUM, Strain/Indicator: TA100, Metabolic Activation: HAMSTER, LIVER, S-9, AROCLOR 1254 (2.5-20%), Method: PREINCUBATION inactive; negative | Test System: AMES SALMONELLA TYPHIMURIUM, Strain/Indicator: TA100, Metabolic Activation: HAMSTER, LIVER, S-9, AROCLOR 1254, Method: STANDARD PLATE inactive; negative | [3] inactive; negative | [4] inactive; negative | Test System: AMES SALMONELLA TYPHIMURIUM, Strain/Indicator: TA102, Metabolic Activation: HAMSTER, LIVER, S-9, AROCLOR 1254, Method: PREINCUBATION inactive; negative | Test System: AMES SALMONELLA TYPHIMURIUM, Strain/Indicator: TA102, Metabolic Activation: NONE, Method: PREINCUBATION inactive; negative | Test System: AMES SALMONELLA TYPHIMURIUM, Strain/Indicator: TA102, Metabolic Activation: RAT, LIVER, S-9, AROCLOR 1254, Method: PREINCUBATION inactive; negative | Test System: AMES SALMONELLA TYPHIMURIUM, Strain/Indicator: TA1535, Metabolic Activation: HAMSTER, LIVER, S-9, AROCLOR 1254, Method: STANDARD PLATE inactive; negative | [5] inactive; negative | [6] inactive; negative | Test System: AMES SALMONELLA TYPHIMURIUM, Strain/Indicator: TA1537, Metabolic Activation: HAMSTER, LIVER, S-9, AROCLOR 1254, Method: STANDARD PLATE inactive; negative | [7] inactive; negative | [8] inactive; negative | Test System: AMES SALMONELLA TYPHIMURIUM, Strain/Indicator: TA1538, Metabolic Activation: HAMSTER, LIVER, S-9, AROCLOR 1254, Method: STANDARD PLATE inactive; negative | [9] inactive; negative | [10] inactive; negative | Test System: Mouse lymphoma, Strain/Indicator: L5178Y (tk+/tk-), Metabolic Activation: None, Method: Suspension/plate inactive; negative | Test System: Mouse lymphoma, Strain/Indicator: L5178Y (tk+/tk-), Metabolic Activation: Rat, Liver, S-9, Aroclor 1254, Method: Suspension/plate inactive; inconcludive (previous evaluation negative)

COc1c(N)cc(C)c(N)c1C
inactive: [1] inactive; negative | [2] inactive; negative | [3] inactive; negative | [4] inactive; negative | [5] inactive; negative | [6] inactive; negative | [7] inactive; negative | [8] inactive; negative | [9] inactive; negative | [10] inactive; negative
